Assay results reported in US9725490B2, “ERAP1-derived peptide and use thereof” (TOKUSHIMA UNIVERSITY, priority 2011, dated 2017).

Assays:
KPL3 cells = assay: E2-independent cell proliferation, KPL-3C; format: cell-based, human; conditions: 10 μM every 24 hours, at 48 hours
Procedure: FIG. 16 is a diagram illustrating the influence of the ERAP1-peptide on proliferation of E2-independent breast cancer cells. […] Each of the cells was treated with 10 μM ERAP1-peptide for 24 hours (MCF-7), for 48 hours (KPL-3C) or for 96 hours (ZR-75-1 and T47D).
MCF-7 cells or ZR-75-1 cells were seeded in 2×10^4/well, and KPL-3C cells were seeded in 1×10^4/well on a 48-well plate, and stood in a CO2 incubator for 24 hours. Then, for MCF-7 cells, the culture medium was exchanged with DMEM/F12 culture medium containing 10% FBS (Nichirei Biosciences, Tokyo, Japan), 1% antibiotic/antimycotic solution (Invitrogen), 0.1 mM NEAA48 (invitrogen), 1 mM sodium pyruvate and 10 μg/ml insulin (Sigma, St. Louis, Mo., USA) and not containing phenol red, and the cells were further pre-cultured for 24 hours. On the other hand, for ZR-75-1 cells and KPL-3C cells, the culture media were exchanged with RPMI culture media containing 10% FBS and 1% antibiotic/antimycotic solution and not containing phenol red, and the cells were further pre-cultured for 24 hours. The supernatant was removed, and then 200 μl of the ERAP1-peptide in each concentration or tamoxifen as a positive control was added, respectively and the mixture was reacted for 24 hours. […] Then, 100 μl from each well was moved to a 96-well plate, and the absorbance at 450 nm was measured with a microplate reader.

[1] = tested on: estrogen-dependent gene expression in MCF-7 cells; assay: Microarray transcriptome analysis, MCF-7; format: cell-based, human; conditions: for Fold change: E2 alone/E2 + peptide
Procedure: MCF-7 cells were treated with 10 μM ERAP1-peptide (Peptide) and the ERAP1-scramble peptide (scrPeptide). Then, immediately, the cells were stimulated with 10 nM E2 for 1 hour. Subsequently, the obtained cell lysate solution was digested with trypsin and subjected to 2DICAL. […] MCF-7 cells were treated with 10 μM ERAP1-peptide. Then, immediately, the cells were stimulated with 10 nM E2 for 5, 10 and 15 hours. Then, RNA extraction and then Cy3-cRNA synthesis were performed, and the Cy3-cRNA was subjected to the microarray. The data were statistically analyzed by GeneSpring software, and the ratio to the value at 0 hour was calculated. **P<0.01.
MCF-7 cells were treated with 10 μM ERAP1-peptide. Then, immediately the cells were stimulated with 10 nM E2. Then, RNA extraction was performed. Cy3 labeled cRNA was synthesized with Low Input Quick Amp Labeling Kit (Agilent Technologies, Loveland, Colo., USA) and hybridized with a custom microarray at 65° C. for 17 hours. The microarray was washed. Then, the product hybridized was measured with a microarray scanner (Agilent). The results thereof were digitized with Future Extraction software (Agilent). The data were statistically analyzed with GeneSpring software (Agilent), and the ratio to the value at 0 hour was calculated.

For CSCC[C@H](NC(=O)[C@H](CCC(N)=O)NC(=O)[C@H](CCCNC(=N)N)NC(=O)[C@H](CCCNC(=N)N)NC(=O)[C@H](CCCNC(=N)N)NC(=O)[C@H](CCCNC(=N)N)NC(=O)[C@H](CCCNC(=N)N)NC(=O)[C@H](CCCNC(=N)N)NC(=O)[C@H](CCCNC(=N)N)NC(=O)[C@H](CCCNC(=N)N)NC(=O)[C@H](CCCNC(=N)N)NC(=O)[C@H](CCCNC(=N)N)NC(=O)[C@@H](N)CCCNC(=N)N)C(=O)N[C@@H](CC(C)C)C(=O)N[C@@H](CO)C(=O)N[C@@H](CC(=O)O)C(=O)N[C@@H](CC(C)C)C(=O)N[C@H](C(=O)N[C@@H](CC(C)C)C(=O)N[C@@H](CCC(N)=O)C(=O)N[C@@H](CC(C)C)C(=O)N[C@@H](CCCNC(=N)N)C(=O)N[C@@H](CCC(N)=O)C(=O)N[C@@H](CCCNC(=N)N)C(=O)O)[C@@H](C)O [ERAP1-peptide], the “cell proliferation in the absence of E2” value (KPL3 cells) was “significant cell proliferation suppression effect”, the “change of mRNA expressions” value ([1]; 10 μM, 10 nM E2, versus E2) was “decreased significantly and genome-widely” and the Fold change ([1]; gene ADCY1) was 5.92. For the same molecule, the Fold change ([1]; gene AKR1C1) was 7.79, the Fold change ([1]; gene AKR1C3) was 6.37 and the Fold change ([1]; gene AKR1C4) was 6.00. The Fold change ([1]; gene ANKS6) was 9.00, the Fold change ([1]; gene ARHGAP36) was 7.08 and the Fold change ([1]; gene BASP1) was 8.01. It also gave a Fold change ([1]; gene BCAS3) of 5.92, a Fold change ([1]; gene BMP5) of 7.72 and a Fold change ([1]; gene BMP7) of 8.40. It also gave a Fold change ([1]; gene BTG3) of 9.06, a Fold change ([1]; gene C1orf59) of 8.43 and a Fold change ([1]; gene C6orf150) of 5.95. For the same molecule, the Fold change ([1]; gene C13orf18) was 5.79, the Fold change ([1]; gene CA2) was 9.87 and the Fold change ([1]; gene CALB2) was 6.05. For the same molecule, the Fold change ([1]; gene CALHM2) was 8.63, the Fold change ([1]; gene CALML5) was 6.39 and the Fold change ([1]; gene CAV1) was 7.44. The Fold change ([1]; gene CAV2) was 6.63, the Fold change ([1]; gene CCDC83) was 6.76 and the Fold change ([1]; gene CEACAM5) was 6.84. For the same molecule, the Fold change ([1]; gene CMTM3) was 7.06, the Fold change ([1]; gene CNKSR3) was 6.27 and the Fold change ([1]; gene CTNND2) was 6.83. The Fold change ([1]; gene CXCR7) was 10.15, the Fold change ([1]; gene CYBA) was 9.51 and the Fold change ([1]; gene DCLK1) was 7.84. The Fold change ([1]; gene DDX43) was 8.53, the Fold change ([1]; gene DPYSL5) was 5.76 and the Fold change ([1]; gene ECHDC1) was 7.73. It also gave a Fold change ([1]; gene ELOVL2) of 7.14, a Fold change ([1]; gene FABP5) of 6.38 and a Fold change ([1]; gene FAM189A2) of 6.33. For the same molecule, the Fold change ([1]; gene FZD6) was 7.54, the Fold change ([1]; gene GPER) was 7.51 and the Fold change ([1]; gene GSTT1) was 7.93. For the same molecule, the Fold change ([1]; gene HAR1B) was 7.11, the Fold change ([1]; gene HMCN1) was 7.54 and the Fold change ([1]; gene HPDL) was 7.68. It also gave a Fold change ([1]; gene KCNJ3) of 8.31, a Fold change ([1]; gene KCNJ8) of 6.44 and a Fold change ([1]; gene KCNQ1OT1) of 6.60. The Fold change ([1]; gene KIF1A) was 7.12, the Fold change ([1]; gene KLK6) was 5.98 and the Fold change ([1]; gene KLK11) was 8.08. It also gave a Fold change ([1]; gene LOC389332) of 6.52, a Fold change ([1]; gene LOC654433) of 6.72 and a Fold change ([1]; gene LOC732272) of 7.09. The Fold change ([1]; gene LOC100508679) was 9.85, the Fold change ([1]; gene LPIN2) was 6.27 and the Fold change ([1]; gene LRRC10B) was 7.17. It also gave a Fold change ([1]; gene LXN) of 11.09, a Fold change ([1]; gene LYPD1) of 6.66 and a Fold change ([1]; gene MAGED4B) of 6.80. For the same molecule, the Fold change ([1]; gene MALL) was 6.05, the Fold change ([1]; gene MARCKS) was 6.99 and the Fold change ([1]; gene ME1) was 6.91. The Fold change ([1]; gene MEST) was 8.84, the Fold change ([1]; gene MUCL1) was 6.13 and the Fold change ([1]; gene NCRNA00052) was 7.27. For the same molecule, the Fold change ([1]; gene NUP210L) was 7.84, the Fold change ([1]; gene OOEP) was 6.57 and the Fold change ([1]; gene PCDH10) was 5.78. For the same molecule, the Fold change ([1]; gene PDGFRL) was 5.77, the Fold change ([1]; gene PM20D2) was 6.56 and the Fold change ([1]; gene PMP22) was 5.93. For the same molecule, the Fold change ([1]; gene POTEB) was 7.70, the Fold change ([1]; gene POTED) was 6.82 and the Fold change ([1]; gene PPARG) was 7.30. For the same molecule, the Fold change ([1]; gene RAMP1) was 5.82, the Fold change ([1]; gene RAMP3) was 7.25 and the Fold change ([1]; gene RGS22) was 7.22. For the same molecule, the Fold change ([1]; gene RP86KA3) was 7.84, the Fold change ([1]; gene S100A14) was 6.73 and the Fold change ([1]; gene SALL4) was 6.60. For the same molecule, the Fold change ([1]; gene SDR42E1) was 8.01, the Fold change ([1]; gene SERPINA5) was 5.87 and the Fold change ([1]; gene SLC6A14) was 8.73. The Fold change ([1]; gene SLC7A2) was 8.32, the Fold change ([1]; gene SLC27A6) was 8.00 and the Fold change ([1]; gene SNX7) was 7.48. For the same molecule, the Fold change ([1]; gene SOX3) was 6.52, the Fold change ([1]; gene SPANXA1) was 6.68 and the Fold change ([1]; gene SPANXB2) was 6.55. It also gave a Fold change ([1]; gene ST8SIA4) of 6.99, a Fold change ([1]; gene TFPI2) of 6.82 and a Fold change ([1]; gene THBD) of 5.97. The Fold change ([1]; gene TLR2) was 5.74, the Fold change ([1]; gene TMEM26) was 6.66 and the Fold change ([1]; gene TMEM64) was 6.46. The Fold change ([1]; gene TMEM150C) was 7.57, the Fold change ([1]; gene TOX2) was 6.29 and the Fold change ([1]; gene TPM4) was 7.60. For the same molecule, the Fold change ([1]; gene TSPYL5) was 9.50, the Fold change ([1]; gene UGT1A6) was 5.78 and the Fold change ([1]; gene UGT1A8) was 6.60. It also gave a Fold change ([1]; gene WISP2) of 6.73, a Fold change ([1]; gene XIST) of 8.53 and a Fold change ([1]; gene ZNF618) of 6.39.
